This note sets out measurements from patent US5574012A, “Analogs of hirudin having anti-platelet activity” (Merrell Pharmaceuticals Inc., priority 1995, dated 1996).

One assay has as its system platelets. Kind of assay: Dog antiplatelet IC50. It is filed as cell-based.
The next assay deals with thrombin (Bos taurus, UniProt P00735). Kind of assay: biochemical. The conditions noted are these: bovine; read-out: Bovine Antithrombin IC50.

`CC[C@H](C)[C@H](NC(=O)[C@@H]1CCCN1C(=O)[C@H](CCC(=O)O)NC(=O)[C@H](Cc1c[nH]c2ccccc12)NC(=O)[C@H](CC(=O)O)NC(=O)CNC(=O)CCCCN)C(=O)N1CCC[C@H]1C(=O)N[C@@H](CCC(=O)O)C(=O)N[C@@H](CCC(=O)O)C(=O)N[C@@H](C)C(=O)N[C@@H](CC1CCCCC1)C(=O)N[C@H](CCC(=O)O)C(=O)O` [Example 2] had an IC50 in the assay with platelets of 250 µM.

For `CC[C@H](C)[C@H](NC(=O)[C@@H]1CCCN1C(=O)[C@H](CCC(=O)O)NC(=O)[C@H](Cc1c[nH]c2ccccc12)NC(=O)[C@H](CC(=O)O)NC(=O)CNC(=O)[C@@H](N)CCCNC(=N)N)C(=O)N1CCC[C@H]1C(=O)N[C@@H](CCC(=O)O)C(=O)N[C@@H](CCC(=O)O)C(=O)N[C@@H](C)C(=O)N[C@@H](CC1CCCCC1)C(=O)N[C@H](CCC(=O)O)C(=O)O` [Example 3], the IC50 at thrombin came out at 2.8 µM.
